Experimental data as given in patent US9034336B2, “Immunomodulators and immunomodulator conjugates” (Regents of the University of Minnesota, priority 2011, dated 2015).
“Also recorded” adds a separate entry of the source.

What was measured:
human TLR7 = target: T1, human TLR7 (Homo sapiens, UniProt Q9NYK1); assay: TLR7/8-NF-κB reporter assay (HEK-TLR7, SEAP); type: cell-based; conditions: HEK-TLR7 cells, 24 hrs, read-out: EC50 of TLR7 (mean ± SD)
T1 construct: host or cells: HEK (HEK293) cells with NF-kB-responsive SEAP reporter
T1 sequence (Q9NYK1 27-1049): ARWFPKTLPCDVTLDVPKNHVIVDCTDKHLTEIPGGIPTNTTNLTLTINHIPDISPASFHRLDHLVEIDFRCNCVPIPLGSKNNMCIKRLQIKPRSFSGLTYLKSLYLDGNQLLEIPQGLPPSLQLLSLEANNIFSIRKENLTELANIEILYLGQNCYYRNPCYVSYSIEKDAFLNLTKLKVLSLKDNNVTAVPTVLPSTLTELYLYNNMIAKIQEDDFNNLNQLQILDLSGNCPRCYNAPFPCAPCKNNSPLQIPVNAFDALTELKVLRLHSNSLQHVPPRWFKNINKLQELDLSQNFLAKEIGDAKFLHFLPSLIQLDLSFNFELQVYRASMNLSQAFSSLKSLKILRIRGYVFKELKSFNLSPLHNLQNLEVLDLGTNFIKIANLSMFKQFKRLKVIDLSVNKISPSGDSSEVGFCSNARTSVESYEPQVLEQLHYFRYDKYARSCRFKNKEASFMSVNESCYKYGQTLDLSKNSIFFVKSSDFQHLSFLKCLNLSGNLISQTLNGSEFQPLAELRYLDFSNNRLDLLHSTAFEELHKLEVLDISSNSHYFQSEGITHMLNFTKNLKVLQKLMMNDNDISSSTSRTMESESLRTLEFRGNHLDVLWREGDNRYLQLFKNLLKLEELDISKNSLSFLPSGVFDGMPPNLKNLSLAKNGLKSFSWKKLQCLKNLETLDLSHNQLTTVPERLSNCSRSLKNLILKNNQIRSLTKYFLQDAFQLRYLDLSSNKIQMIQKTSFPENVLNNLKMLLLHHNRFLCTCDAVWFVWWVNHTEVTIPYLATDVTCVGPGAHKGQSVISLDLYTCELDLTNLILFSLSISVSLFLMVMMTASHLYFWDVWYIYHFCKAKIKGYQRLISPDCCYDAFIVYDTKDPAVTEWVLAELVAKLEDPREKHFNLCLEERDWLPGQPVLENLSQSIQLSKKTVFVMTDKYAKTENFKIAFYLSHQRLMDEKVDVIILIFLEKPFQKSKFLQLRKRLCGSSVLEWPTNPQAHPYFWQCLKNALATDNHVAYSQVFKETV
Experimental: Human embryonic kidney (HEK) cells that were stably transfected with human TLR7 or TLR8 and an NF-κB—responsive secreted embryonic alkaline phosphatase (SEAP) gene (HEK-TLR7/8) were purchased from InvivoGen (San Diego, Calif.). The procedure used to measure TLR7 or TLR8 agonist activity was conducted as described by Hood et al. (Hood J. D, et al., Human Vaccines, 2010, 6, 4, 322-335). Briefly, HEK-TLR7/8 cells were stimulated with 3.3 or 30 μM of compound in a 96-well plate in DMEM containing 10% FBS and 0.01% Normocin (InvivoGen) for 24 hrs. Twenty microliters of the supernatant from each well was incubated with Quanti-blue substrate solution (InvivoGen) at 37° C. for 1 hour and absorbance was read at 650 nm using a Synergy plate reader (Biotek, Winooski, Vt.).

[1] = tested on: human monocyte-derived dendritic cells (MoDC); assay: Human MoDC inflammatory cytokines by cytometric bead assay; type: cell-based
Experimental: 1. Dendritic cells were generated from peripheral blood monocytes as described (Brossart P, et al. Blood. 1998; 92: 4238-4247). In brief, CD14 positive monocytes were from a healthy human peripheral blood mononuclear cells (PBMC) obtained via isolation with Lymphocyte Separation Medium (Mediatech, Inc, Manassas, Va.) and after purification with CD14 microbeads from Miltenyi Biotec Inc (Aubun, Calif.). The CD14 positive monocytes (>95% CD14) were cultured into immature monocyte-derived dendritic cells (MoDC) by further 6 day culture with GM-CSF (100 ng/ml) and IL-4 (100 ng/ml)(R&D, MN). 2. 0.1 million of MoDC were plated into 96-well plate and stimulated for 48 hours with 5 different concentration of following TLRs: 412, 420, 421, 414 and 415 at concentration of 0, 0.325, 1.3, 5.2 and 20.8 nmol/ml in triplicate. In other experiments (FIGS. 34 and 35), fresh PBMC (not DC) were used as the responder cells to the indicated compounds and cytokines levels were measured by bead array according to the manufacture's protocol (BD biosciences).
The supernatant were harvested 48 hours after stimulation with TLRs. Inflammatory cytokines level was identified with CBA, following the producer's instruction (BD, San Jose, Calif.)

BMDC or splenocytes = assay: Inflammatory cytokine detection in BMDC and splenocytes (CBA); type: cell-based, C57BL/6j mice; conditions: Example 6, FIG. 23; compared to resiquimod and imiquimod
Experimental: Bone marrow cells were harvested from femurs and tibias of C57BL/6j. After red blood cells were removed with ammonium-chloride-potassium buffer, the bone marrow cells were cultured with complete RPMI-1640 medium and 2 ng/ml of granulocyte macrophage colony-stimulating factor (GM-CFS) at 5% CO2 and 37° C. for 6 days. Medium was changed twice during 6 days culture. Single cell suspension of splenocytes was prepared in the same way as one in IL-6 detection assay. BMDC or splenocytes were stimulated in triplicate with Imiquimod-derived new TLR ligand compounds, 412, 420, 421, 422, IMQ (414) and Resquimod (415) at various concentration of 20.8 nmol/ml, 5.2 nmol/ml, 1.3 nmol/ml, 0.325 nmol/ml and 0 nmol/ml. 48 hours after stimulation, the supernatants were harvested and frozen at −80° C. until detection. A cytometric bead array (CBA, BD Bioscience) was performed on inflammatory cytokines following the manufacture's instruction. 500 events were collected. Analysis of all samples was performed on FACScanto-II machine with software and further analyzed with Flowjo. Standard curves and negative control (PBS) were included for each cytokine to calculate the cytokine concentration in the samples.

EC50 (human TLR7): 1.52 ± 0.07 µM
SMILES: CCCCc1nc2c(N)nc3cc(C(=O)OC)ccc3c2n1CC(C)(C)O [Compound 420, 4-Amino-2-butyl-1-(2-hydroxy-2-methylpropyl)-7-methoxycarbonyl-1H-imidazo[4,5-c]quinoline]
IL-1β induction / secretion ([1]; human MoDC (FIG. 11)): induction of IL-1β; also recorded: the only drug tested that caused appreciable IL-1b secretion | production of inflammatory cytokines ([1]; human MoDC, supernatant 48 hours after stimulation): higher production of “inflammatory cytokines”, compared to imiquimod (but less stronger than Resquimod) | elaboration of proinflammatory TNFa (BMDC or splenocytes): significantly greater elaboration of proinflammatory TNFa compared to the other drugs
